Test results published in ChEMBL document CHEMBL1201862, “PubChem BioAssay data set” (2004).
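Protocol summary: plate cells (96-well), add compound at 5 concentrations, incubate 48 h, interpolate endpoints linearly. The concentration for 50% growth inhibition is given as GI50.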 Calls of active or inactive are those of the source. No stated cut-off is given here; in the data, active = GI50 up to about 1.1 µM and inactive = higher.

Columns and labels:
Experiment in all cases: inhibition of tumour cell growth, NCI panel, 48 h
786-0 = test system: 786-0
A498 = test system: A498
A549 = test system: A549
ACHN = test system: ACHN
BT-549 = test system: BT-549
CAKI-1 = test system: CAKI-1
COLO 205 = test system: COLO 205
EKVX = test system: EKVX
HCC 2998 = test system: HCC 2998
HCT-116 = test system: HCT-116
HCT-15 = test system: HCT-15
HOP-62 = test system: HOP-62
HOP-92 = test system: HOP-92
HT-29 = test system: HT-29
Hs-578T = test system: Hs-578T
IGROV-1 = test system: IGROV-1
K562 = test system: K562
KM12 = test system: KM12
LOX IMVI = test system: LOX IMVI
M14 = test system: M14
MCF7 = test system: MCF7
MDA-MB-231 = test system: MDA-MB-231
MDA-MB-435 = test system: MDA-MB-435
MDA-N = test system: MDA-N
Malme-3M = test system: Malme-3M
NCI-H226 = test system: NCI-H226
NCI-H23 = test system: NCI-H23
NCI-H460 = test system: NCI-H460
NCI-H522 = test system: NCI-H522
NCI/ADR-RES = test system: NCI/ADR-RES
OVCAR-3 = test system: OVCAR-3
OVCAR-4 = test system: OVCAR-4
OVCAR-5 = test system: OVCAR-5
OVCAR-8 = test system: OVCAR-8
PC-3 = test system: PC-3
RPMI-8226 = test system: RPMI-8226
RXF 393 = test system: RXF 393
SF-268 = test system: SF-268
SF-295 = test system: SF-295
SF-539 = test system: SF-539
SK-MEL-28 = test system: SK-MEL-28
SK-MEL-2 = test system: SK-MEL-2
SK-OV-3 = test system: SK-OV-3
SN12C = test system: SN12C
SNB-19 = test system: SNB-19
SNB-75 = test system: SNB-75
SW-620 = test system: SW-620
T47D = test system: T47D
TK-10 = test system: TK-10
U-251 = test system: U-251
UACC-257 = test system: UACC-257
UACC-62 = test system: UACC-62
UO-31 = test system: UO-31

How did the GI50 (786-0) turn out when Nc1[nH]c(=O)[nH]c(=O)c1Cc1cccc(Cl)c1 was run?
Its GI50 is > 100 µM (inactive).

And the GI50 (A498)?
The GI50 was > 100 µM (inactive).

What about the GI50 (A549) of the same compound?
The GI50 was > 100 µM (inactive).

What about the GI50 (ACHN) of the same compound?
Its GI50 is > 100 µM (inactive).

What about the GI50 (BT-549) of the same compound?
The GI50 was 75.2 µM (inactive).

And the GI50 (CAKI-1)?
The GI50 was > 100 µM (inactive).

And the GI50 (COLO 205)?
The GI50 was > 100 µM (inactive).

What about the GI50 (EKVX) of the same compound?
The GI50 was > 100 µM (inactive).

What about the GI50 (HCC 2998) of the same compound?
Its GI50 is 56 µM (inactive).

And the GI50 (HCT-116)?
The GI50 was 45.5 µM (inactive).

And the GI50 (HCT-15)?
Its GI50 is 84.9 µM.

What about the GI50 (HOP-62) of the same compound?
Its GI50 is > 100 µM (inactive).

And the GI50 (HOP-92)?
The GI50 was 36.3 µM (inactive).

What about the GI50 (HT-29) of the same compound?
The GI50 was > 100 µM (inactive).

And the GI50 (Hs-578T)?
Its GI50 is 39.6 µM (inactive).

What about the GI50 (IGROV-1) of the same compound?
Its GI50 is 56.9 µM (inactive).

And the GI50 (K562)?
The GI50 was 63.5 µM (inactive).

And the GI50 (KM12)?
Its GI50 is 80.5 µM (inactive).

What about the GI50 (LOX IMVI) of the same compound?
Its GI50 is 54.7 µM (inactive).

What about the GI50 (M14) of the same compound?
The GI50 was 84.9 µM (inactive).

And the GI50 (MCF7)?
Its GI50 is 17.9 µM (inactive).

What about the GI50 (MDA-MB-231) of the same compound?
The GI50 was > 100 µM (inactive).

What about the GI50 (MDA-MB-435) of the same compound?
Its GI50 is 44 µM (inactive).

What about the GI50 (MDA-N) of the same compound?
Its GI50 is 41 µM (inactive).

And the GI50 (Malme-3M)?
The GI50 was > 100 µM (inactive).

What about the GI50 (NCI-H226) of the same compound?
Its GI50 is > 100 µM (inactive).

What about the GI50 (NCI-H23) of the same compound?
Its GI50 is > 100 µM (inactive).

What about the GI50 (NCI-H460) of the same compound?
Its GI50 is 56.8 µM (inactive).

And the GI50 (NCI-H522)?
Its GI50 is 88.9 µM (inactive).

And the GI50 (NCI/ADR-RES)?
Its GI50 is > 100 µM (inactive).

And the GI50 (OVCAR-3)?
Its GI50 is > 100 µM (inactive).

And the GI50 (OVCAR-4)?
The GI50 was 57.9 µM (inactive).

And the GI50 (OVCAR-5)?
The GI50 was > 100 µM (inactive).

And the GI50 (OVCAR-8)?
The GI50 was > 100 µM (inactive).

And the GI50 (PC-3)?
The GI50 was 52.7 µM (inactive).

What about the GI50 (RPMI-8226) of the same compound?
The GI50 was 79.6 µM (inactive).

What about the GI50 (RXF 393) of the same compound?
The GI50 was 87.3 µM (inactive).

And the GI50 (SF-268)?
The GI50 was 38.3 µM (inactive).

And the GI50 (SF-295)?
The GI50 was > 100 µM (inactive).

What about the GI50 (SF-539) of the same compound?
The GI50 was > 100 µM (inactive).

And the GI50 (SK-MEL-28)?
The GI50 was > 100 µM (inactive).

What about the GI50 (SK-MEL-2) of the same compound?
The GI50 was 71.9 µM (inactive).

What about the GI50 (SK-OV-3) of the same compound?
Its GI50 is > 100 µM (inactive).

And the GI50 (SN12C)?
Its GI50 is > 100 µM (inactive).

And the GI50 (SNB-19)?
Its GI50 is > 100 µM (inactive).

And the GI50 (SNB-75)?
Its GI50 is 58.7 µM (inactive).

And the GI50 (SW-620)?
The GI50 was 96.2 µM (inactive).

And the GI50 (T47D)?
Its GI50 is 39 µM (inactive).

And the GI50 (TK-10)?
Its GI50 is 63.7 µM (inactive).

And the GI50 (U-251)?
The GI50 was > 100 µM (inactive).

And the GI50 (UACC-257)?
Its GI50 is 51.9 µM (inactive).

And the GI50 (UACC-62)?
Its GI50 is 34.4 µM (inactive).

And the GI50 (UO-31)?
Its GI50 is 26.2 µM (inactive).
